Experimental data from patent US11786543B2, “Compositions comprising decitabine and tetrahydrouridine and uses thereof” (The Board of Trustees of the University of Illinois, priority 2008, dated 2023).
“And” between values parts separate entries of the source, which are not always exact repeats. Equal entries are not always repeated.

Legend:
[1] = Decitabine plasma pharmacokinetics in baboons (LC/MS)
Procedure: Baboons were treated with IV decitabine 0.5 mg/kg (2 animals), SQ decitabine 0.5 mg/kg (2 animals), or oral decitabine 10 mg/kg (2 animals).
Decitabine was administered to two baboons IV (0.5 mg/kg), SQ (0.5 mg/kg) and orally (10 mg/kg). Blood was collected at 7 time-points and plasma concentrations were determined using an LC/MS/MS method adapted from a previously published method 26.
AUClast refers to the area under a plotted plasma concentration-time curve (not shown) at the last recorded timepoint.
Two baboons (PA7484 and PA7470) were administered oral THU 20 mg/kg (400 mg/m^2) 60 minutes prior to oral decitabine 5 mg/kg, or decitabine alone. After a wash-out period of greater than 2 weeks, these same two animals were administered oral THU 2 mg/kg […] 60 minutes prior to oral decitabine 5 mg/kg, or oral decitabine alone. […] Decitabine levels were measured at various timepoints by LC-MS. […]
To compare the effect of different routes of administration on the DAC concentration-time profile, plasma DAC levels were compared after IV or SC administration versus oral administration to the same animals (washout period of ≥2 weeks between drug administrations to the same animal). […] Blood was collected for up to 7 time-points after administration and plasma concentrations were determined using LC/MSMS. […]

baboons = assay: Pharmacodynamic responses (HbF %, neutrophil counts) to decitabine with or without THU in baboons; format: in vivo, baboon; set-up: ANC nadir: unit not given here
Procedure: Fetal hemoglobin expression, HbF %, pre and post treatment with the indicated dose of decitabine. […] Oral treatment was with decitabine or a slightly modified decitabine (decitabine-mesylate—Dac-m).
Decitabine was administered at the doses indicated in two consecutive blocks of 5 days each. THU at the indicated doses was administered 60 minutes before each decitabine dose.

[2] = system: normal hematopoietic precursors; format: cell-based; settings: DAC 0.5 μM, equimolar Ara-C, clinically relevant levels of HU; measured D6
Procedure: Measurement was performed on D6.
Normal CD34 cells were isolated from cord blood. […] Equimolar levels of AraC were used as positive controls. […] Twenty-four hours after DAC or AraC exposure, apoptosis was measured by flow-cytometric assessment for annexin staining. Double annexin/7-aminoactinomycin D (7AAD)-positive cells represent late apoptosis/necrosis. […] Results are expressed as a percentage of vehicle treated controls.
(§1) AraC, a cytidine analog that terminates DNA chain synthesis, was used as a positive control for DNA damage and apoptosis induction.

normal CD34+ cells = assay: Cell counts, morphology and colony formation; format: cell-based; settings: non-DNA-damaging DNMTI-depleting decitabine; Ara-C equimolar
Excerpt: The Kasumi-1 cell-line is derived from a patient with AMLI-ETO leukemia and represents a late-stage model of transformation and malignant evolution.

[3] = system: normal CD34+ hematopoietic cells; assay: DNA damage (Fast Micromethod for DNA scission, γH2AX flow cytometry); settings: decitabine 0.5 μM D1,3,5; Ara-C 0.5 μM D1,3,5; hydroxyurea 500 μM D1-5; measured D6
Procedure: Measurement was performed on D6.
Dark histogram=isotype control for flow-cytometricanalysis. Light histograms show the γH2AX staining for untreated control cells. Measurement was performed on D6.
Normal CD34 cells were isolated from cord blood. DAC 0.005 μM was added once daily on days 1-4 and DNMT1 was quantified by Western blot on day 5. […] Twenty-four hours after DAC or AraC exposure, DNA damage was measured by flow-cytometric assessment for phosphorylation of histone H2AX (γH2AX; B) or the Fast Micromethod for DNA scission (FIG. 19C). Equimolar levels of AraC were used as positive controls. Gray histogram is the isotype control. […] Twenty-four hours after DAC or AraC exposure, apoptosis was measured by flow-cytometric assessment for annexin staining. Double annexin/7-aminoactinomycin D (7AAD)-positive cells represent late apoptosis/necrosis. […] Results are expressed as a percentage of vehicle treated controls.
as §1

[4] = system: Reno-1 renal cell cancer xenograft; settings: mouse, in vivo
Procedure: In an effort to apply the proposed formulation and regimen to treat different cancer histologies, a renal cell cancer cell-line (Reno-1) was developed from a surgical sample of renal cancer and used in a xeno-transplantation experiment. […] The percentage of necrosis in each tissue section was evaluated in a blinded fashion.

[5] = Oral 9.35 mg/kg/d, individual baboons, 9.35 mg/kg/day
[6] = Oral 18.7 mg/kg/d, individual baboons

In the case of `O=C1NC(O)CCN1[C@@H]1O[C@H](CO)[C@@H](O)[C@H]1O` (some centres unmarked) [THU, Tetrahydrouridine], the “DAC concentrations, THU 400 mg/m^2 versus THU 40 mg/m^2” value ([1]; 60 minutes before DAC 100 mg/m^2, PA7470 and PA7484) is reported as “produced higher DAC concentrations” and the “DAC concentrations, THU 60 minutes before versus simultaneously or 30 minutes before DAC” value ([1]; in vivo) is reported as “produced higher DAC concentrations”.

With `CS(=O)(=O)O.Nc1ncn([C@H]2C[C@H](O)[C@@H](CO)O2)c(=O)n1` [Dac-m, decitabine-mesylate] the ANC nadir (baboons; Oral 4.1 mg/kg/d, baboon 7001) was 1417, the Post-HbF % (baboons; Oral 4.1 mg/kg/d, baboon 7001) was 13.1% and the ANC nadir (baboons; Oral 6.7 mg/kg/d, baboon 7002) was 481. For the same compound, the Post-HbF % (baboons; Oral 6.7 mg/kg/d, baboon 7002) was 31.4%, the ANC nadir (baboons; [5]) was 463 and 2000 and the Post-HbF % (baboons; [5]) was 62.3% and 40.5%. The ANC nadir (baboons; [6]) was 1659 and the Post-HbF % (baboons; [6]) was 67.8%.

For `Nc1ccn([C@@H]2O[C@H](CO)[C@@H](O)[C@@H]2O)c(=O)n1` [Ara-C, cytosine arabinoside], the “apoptosis (annexin V-FITC and 7AAD double staining)” value [2] was “cause significant apoptosis and cell-death”, the cell counts (normal CD34+ cells) was “more devastating to normal cells” and the “DNA damage (Fast Micro-method for DNA scission, γH2AX)” value [3] was “cause significant DNA damage”.

With “avastin: standard agent used to treat renal cancer” the “sensitivity of the tumor to standard agents” value [4] was “relatively resistant”.
